According to publication PMC9830638, “High-Contrast Detection of Somatostatin Receptor Subtype-2 for Fluorescence-Guided Surgery” (Molecular Pharmaceutics, 2022):

Tested on: orthotopically implanted BON–SSTR2 tumors
Assay: Simulated clinical workflow, PET/CT imaging in orthotopic BON–SSTR2 tumor model
Format: in vivo, mice
Settings: orthotopic BON–SSTR2, 7.4 MBq (0.5 nmol), 1 h after injection, n = 5
Description: Mice bearing orthotopically implanted BON–SSTR2 tumors (n = 5) were injected with 7.4 MBq (200 μCi; 0.5 nmol) of ^68Ga-DOTA-TOC and underwent PET/computed tomography (CT) imaging (Albira small animal PET/CT scanner, Bruker) 1 h after injection. […] After euthanasia, tumors were harvested under white light, and the wound bed was re-imaged with NIRF. After a more thorough visual inspection of the wound bed under white light, suspicious lesions were identified and harvested with the intact organ for ex vivo imaging along with other tissues of interest. Tumors, suspicious lesions, and relevant non-tumor tissues were processed for immunohistopathological and mesoscopic imaging.
For CFT two-dimensional (2D) and three-dimensional (3D) reconstruction, 2D images were obtained from individual slices, and an image stack was generated to produce 3D data sets. For PET/CT imaging, region-of-interest analysis was done with Integrated PMOD software (PMOD technologies) to standardize uptake values and determine TBRs.

1,4,7,10-tetraazacyclododecane-1,4,7,10-tetraacetic acid-Tyr^3-octreotide [68Ga-DOTA-TOC]
mice with abnormal uptake in the abdomen (PET/CT): 4 out of 5
